Species on record: Rattus norvegicus
Assay: DrugMatrix - Regimen: Daily Repeat
Type: toxicity, organism-based, Sprague-Dawley
Set-up: regimen Daily Repeat, gender Male, age 6-8 weeks
Conditions: in vivo, sc, route subcutaneous, […]; for ABSOLUTE BASOPHIL / ABSOLUTE EOSINOPHIL / ABSOLUTE LYMPHOCYTE / ABSOLUTE MONOCYTE / ABSOLUTE SEGMENTED NEUTROPHIL / BASOPHIL / EOSINOPHIL / ERYTHROCYTE COUNT / HEMATOCRIT / HEMOGLOBIN / LEUKOCYTE COUNT / LYMPHOCYTE / MEAN CORPUSCULAR HEMOGLOBIN / MEAN CORPUSCULAR VOLUME / MONOCYTE / NEUTROPHIL / NUCLEATED RED BLOOD CELLS / PLATELET COUNT: tissue Blood; for ALANINE AMINOTRANSFERASE / ALBUMIN / ALKALINE PHOSPHATASE / ASPARTATE AMINOTRANSFERASE / BLOOD UREA NITROGEN / CARBON DIOXIDE / CHLORIDE / CHOLESTEROL / CREATINE PHOSPHOKINASE / CREATININE / GLUCOSE / LACTATE DEHYDROGENASE / LIPASE / PHOSPHORUS / POTASSIUM / SODIUM / TOTAL BILIRUBIN / TOTAL PROTEIN / URIC ACID: tissue Plasma
[1] = 50 mg/kg, 120 h, dose level Low, time 5 day
[2] = 450 mg/kg, 72 h, dose level M2, time 3 day
[3] = 450 mg/kg, 120 h, dose level M2, time 5 day

CCCCCCCCc1ccc(O)cc1 [4-OCTYLPHENOL]
ABSOLUTE BASOPHIL [1]: 0 CELLS/uL | ABSOLUTE EOSINOPHIL [1]: 65.33 CELLS/uL | ABSOLUTE LYMPHOCYTE [1]: 9619.33 CELLS/uL | ABSOLUTE MONOCYTE [1]: 226 CELLS/uL | ABSOLUTE SEGMENTED NEUTROPHIL [1]: 589.33 CELLS/uL | BASOPHIL [1]: 0% | EOSINOPHIL [1]: 0.67% | ERYTHROCYTE COUNT [1]: 5.5 x10E6/uL | HEMATOCRIT [1]: 35.3% | HEMOGLOBIN [1]: 13.8 G/DL | LEUKOCYTE COUNT [1]: 10.5 x10E3/uL | LYMPHOCYTE [1]: 91.33% | MEAN CORPUSCULAR HEMOGLOBIN [1]: 25.17 pg | MEAN CORPUSCULAR VOLUME [1]: 64.33 fL | MONOCYTE [1]: 2.33% | NEUTROPHIL [1]: 5.67% | NUCLEATED RED BLOOD CELLS [1]: 0 /100WBC | PLATELET COUNT [1]: 1190 x10E3/uL | ALANINE AMINOTRANSFERASE [1]: 45.33 u/L | ALBUMIN [1]: 3.2 G/DL | ALKALINE PHOSPHATASE [1]: 276.67 u/L | ASPARTATE AMINOTRANSFERASE [1]: 80 u/L | BLOOD UREA NITROGEN [1]: 15 mg/dL | CARBON DIOXIDE [1]: 29.67 mmol/L | CHLORIDE [1]: 100 MEQ/L | CHOLESTEROL [1]: 78 mg/dL | CREATINE PHOSPHOKINASE [1]: 339.67 u/L | CREATININE [1]: 0.16 mg/dL | GLUCOSE [1]: 161.33 mg/dL | LACTATE DEHYDROGENASE [1]: 367 u/L | LIPASE [1]: 9 u/L | PHOSPHORUS [1]: 12.2 mg/dL | POTASSIUM [1]: 6.42 MEQ/L | SODIUM [1]: 141.23 MEQ/L | TOTAL BILIRUBIN [1]: 0.1 mg/dL | TOTAL PROTEIN [1]: 5.57 G/DL | URIC ACID [1]: 1.5 mg/dL | ABSOLUTE BASOPHIL [2]: 0 CELLS/uL | ABSOLUTE EOSINOPHIL [2]: 58 CELLS/uL | ABSOLUTE LYMPHOCYTE [2]: 8257.67 CELLS/uL | ABSOLUTE MONOCYTE [2]: 28.33 CELLS/uL | ABSOLUTE SEGMENTED NEUTROPHIL [2]: 256 CELLS/uL | BASOPHIL [2]: 0% | EOSINOPHIL [2]: 0.67% | ERYTHROCYTE COUNT [2]: 5.23 x10E6/uL | HEMATOCRIT [2]: 32.2% | HEMOGLOBIN [2]: 12.73 G/DL | LEUKOCYTE COUNT [2]: 8.6 x10E3/uL | LYMPHOCYTE [2]: 96% | MEAN CORPUSCULAR HEMOGLOBIN [2]: 24.37 pg | MEAN CORPUSCULAR VOLUME [2]: 61.63 fL | MONOCYTE [2]: 0.33% | NEUTROPHIL [2]: 3% | NUCLEATED RED BLOOD CELLS [2]: 0 /100WBC | PLATELET COUNT [2]: 1100 x10E3/uL | ALANINE AMINOTRANSFERASE [2]: 61 u/L | ALBUMIN [2]: 3.07 G/DL | ALKALINE PHOSPHATASE [2]: 305.67 u/L | ASPARTATE AMINOTRANSFERASE [2]: 93.67 u/L | BLOOD UREA NITROGEN [2]: 9.67 mg/dL | CARBON DIOXIDE [2]: 24 mmol/L | CHLORIDE [2]: 94 MEQ/L | CHOLESTEROL [2]: 75.33 mg/dL | CREATINE PHOSPHOKINASE [2]: 340.33 u/L | CREATININE [2]: 0.3 mg/dL | GLUCOSE [2]: 117.67 mg/dL | LACTATE DEHYDROGENASE [2]: 409.67 u/L | LIPASE [2]: 9 u/L | PHOSPHORUS [2]: 10.37 mg/dL | POTASSIUM [2]: 5.55 MEQ/L | SODIUM [2]: 137.75 MEQ/L | TOTAL BILIRUBIN [2]: 0.1 mg/dL | TOTAL PROTEIN [2]: 5.1 G/DL | URIC ACID [2]: 0.63 mg/dL | ABSOLUTE BASOPHIL [3]: 0 CELLS/uL | ABSOLUTE EOSINOPHIL [3]: 224.33 CELLS/uL | ABSOLUTE LYMPHOCYTE [3]: 13520.67 CELLS/uL | ABSOLUTE MONOCYTE [3]: 303.33 CELLS/uL | ABSOLUTE SEGMENTED NEUTROPHIL [3]: 3318.33 CELLS/uL | BASOPHIL [3]: 0% | EOSINOPHIL [3]: 1.33% | ERYTHROCYTE COUNT [3]: 5.94 x10E6/uL | HEMATOCRIT [3]: 36.27% | HEMOGLOBIN [3]: 14.17 G/DL | LEUKOCYTE COUNT [3]: 17.37 x10E3/uL | LYMPHOCYTE [3]: 78% | MEAN CORPUSCULAR HEMOGLOBIN [3]: 23.97 pg | MEAN CORPUSCULAR VOLUME [3]: 61.27 fL | MONOCYTE [3]: 1.67% | NEUTROPHIL [3]: 19% | NUCLEATED RED BLOOD CELLS [3]: 0 /100WBC | PLATELET COUNT [3]: 1864.67 x10E3/uL | ALANINE AMINOTRANSFERASE [3]: 43.33 u/L | ALBUMIN [3]: 3.17 G/DL | ALKALINE PHOSPHATASE [3]: 326.67 u/L | ASPARTATE AMINOTRANSFERASE [3]: 82.67 u/L | BLOOD UREA NITROGEN [3]: 14 mg/dL | CARBON DIOXIDE [3]: 25.33 mmol/L | CHLORIDE [3]: 102.67 MEQ/L | CHOLESTEROL [3]: 71.67 mg/dL | CREATINE PHOSPHOKINASE [3]: 343 u/L | CREATININE [3]: 0.19 mg/dL | GLUCOSE [3]: 162.33 mg/dL | LACTATE DEHYDROGENASE [3]: 384.67 u/L | LIPASE [3]: 9.67 u/L | PHOSPHORUS [3]: 12.93 mg/dL | POTASSIUM [3]: 7.17 MEQ/L | SODIUM [3]: 141.23 MEQ/L | TOTAL BILIRUBIN [3]: 0.13 mg/dL | TOTAL PROTEIN [3]: 5.4 G/DL | URIC ACID [3]: 2.67 mg/dL

Source: ChEMBL document CHEMBL3885881, “DrugMatrix”
